Test results taken from patent US7186743B2, “Substituted pyrazolyl compounds for the treatment of inflammation” (Pharmacia Corporation, priority 2001, dated 2007).
pIC50: −log10 of the molar value. Read-outs that look alike come from different tables or passages of the source.

Target: T1, IKK2 (Homo sapiens, UniProt O14920)
T1 construct: made in house; host or cells: insect cells (baculovirus, pFastBac; SF9)
T1 sequence (O14920 1-756): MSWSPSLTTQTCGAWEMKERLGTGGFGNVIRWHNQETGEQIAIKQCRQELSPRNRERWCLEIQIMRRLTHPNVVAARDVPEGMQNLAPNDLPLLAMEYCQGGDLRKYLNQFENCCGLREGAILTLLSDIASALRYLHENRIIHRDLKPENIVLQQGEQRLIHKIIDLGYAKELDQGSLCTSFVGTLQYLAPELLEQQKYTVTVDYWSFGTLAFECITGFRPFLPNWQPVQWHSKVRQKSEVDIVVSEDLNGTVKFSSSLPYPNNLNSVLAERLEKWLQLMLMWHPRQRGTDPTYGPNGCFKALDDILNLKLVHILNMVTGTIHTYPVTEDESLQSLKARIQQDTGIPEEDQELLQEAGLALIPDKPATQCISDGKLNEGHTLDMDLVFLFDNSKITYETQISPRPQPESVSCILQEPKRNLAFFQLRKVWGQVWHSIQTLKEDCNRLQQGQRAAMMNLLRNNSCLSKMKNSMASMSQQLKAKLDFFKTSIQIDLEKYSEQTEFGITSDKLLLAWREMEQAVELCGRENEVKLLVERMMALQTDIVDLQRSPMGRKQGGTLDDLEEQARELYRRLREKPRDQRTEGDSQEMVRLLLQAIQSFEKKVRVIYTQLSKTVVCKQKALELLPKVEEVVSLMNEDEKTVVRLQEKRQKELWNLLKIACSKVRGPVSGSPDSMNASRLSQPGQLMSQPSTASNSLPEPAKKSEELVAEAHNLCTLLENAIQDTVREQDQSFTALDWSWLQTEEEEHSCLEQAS
Test: IKKβ Resin Enzyme Assay (IKK2 resin)
Type: biochemical
In short: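 Radiometric test: [γ-33P]ATP incorporation into a biotinylated IκBα peptide, 30 min at 25° C, pH 7.6 Hepes with MgCl2/MnCl2 and 1 μM cold ATP. Reaction is quenched with Dowex resin and the supernatant is counted. Kinase is FLAG-purified homodimeric recombinant human IKK2 from insect cells.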

[1] = Table 4, read-out: IKK2 Resin IC50
[2] = Table 18, read-out: IKK2 Resin IC50
[3] = Table 6, read-out: IKK2 Resin IC 50
[4] = Table 11, read-out: IKK2 Resin IC50
[5] = Table 2, read-out: IKK Resin IC50

NC(=O)c1nn(-c2ccc3c(c2)OCO3)c2c1CCc1ccc(NC(=O)c3cc([N+](=O)[O-])ccc3Cl)cc1-2 [Example 173, 1-(1,3-benzodioxol-5-yl)-8-[(2-chloro-5-nitrobenzoyl)amino]-4,5-dihydro-1H-benzo[g]indazole-3-carboxamide]
pIC50 [1]: ≥ 6.00

CS(=O)(=O)c1ccc(-n2nc(C(N)=O)c3c2-c2cc(NC(=O)c4ccc(Cl)cc4[N+](=O)[O-])ccc2CC3)cc1 [Example 132, 8-[(4-chloro-2-nitrobenzoyl)amino]-1-[4-(methylsulfonyl)phenyl]-4,5-dihydro-1H-benzo[g]indazole-3-carboxamide]
pIC50 (Table 3, read-out: IKK Resin IC50): ≥ 6.00

CCS(=O)(=O)c1ccc(-n2nc(C(N)=O)c3c2-c2cc(NC(=O)c4cccnc4Cl)ccc2CC3)cc1 [Example 396, 8-{[(2-chloropyridin-3-yl)carbonyl]amino}-1-[4-(ethylsulfonyl)phenyl]-4,5-dihydro-1H-benzo[g]indazole-3-carboxamide]
pIC50 [2]: ≥ 6.00

NC(=O)c1nn(-c2ccc(F)cc2)c2c1CCc1ccc(NC(=O)c3ccc(N)cc3Cl)cc1-2 [Example 232, 8-[(4-amino-2-chlorobenzoyl)amino]-1-(4-fluorophenyl)-4,5-dihydro-1H-benzo[g]indazole-3-carboxamide]
pIC50 [3]: ≥ 6.00

CC(C)S(=O)(=O)c1ccc(-n2nc(C(N)=O)c3c2-c2cc(NC(=O)c4ccccc4Cl)ccc2CC3)cc1 [Example 393, 8-[(2-chlorobenzoyl)amino]-1-[4-(isopropylsulfonyl)phenyl]-4,5-dihydro-1H-benzo[g]indazole-3-carboxamide]
pIC50 [2]: ≥ 6.00

CC(=O)CCc1ccc(-n2nc(C(N)=O)c3c2-c2cc(NC(=O)c4ccccc4Cl)ccc2CC3)cc1 [Example 296, 8-[(2-chlorobenzoyl)amino]-1-[4-(3-oxobutyl)phenyl]-4,5-dihydro-1H-benzo[g]indazole-3-carboxamide]
pIC50 [4]: ≥ 6.00

CCNC(=O)/C=C/c1ccc(-n2nc(C(N)=O)c3c2-c2cc(NC(=O)c4ccccc4Cl)ccc2CC3)cc1 [Example 312, 8-[(2-chlorobenzoyl)amino]-1-{4-[(1E)-3-(ethylamino)-3-oxoprop-1-enyl]phenyl)-4,5-dihydro-1H-benzo[g]indazole-3-carboxamidee]
pIC50 (Table 12, read-out: IKK2 Resin IC50): ≥ 6.00

NC(=O)c1nn(-c2ccc3c(c2)OCO3)c2c1CCc1ccc(NC(=O)c3ccncc3Cl)cc1-2 [Example 170, 1-(1,3-benzodioxol-5-yl)-8-[(3-chloroisonicotinoyl)amino]-4,5-dihydro-1H-benzo[g]indazole-3-carboxamide]
pIC50 [1]: ≥ 6.00

CCS(=O)(=O)c1ccc(-n2nc(C(N)=O)c3c2-c2cc(NC(=O)c4ccccc4Cl)ccc2CC3)cc1 [Example 395, 8-[(2-chlorobenzoyl)amino]-1-[4-(ethylsulfonyl)phenyl]-4,5-dihydro-1H-benzo[g]indazole-3-carboxamide]
pIC50 [2]: ≥ 6.00

CS(=O)(=O)c1ccc(-n2nc(C(N)=O)c3c2-c2cc(NC(=O)c4ccncc4)ccc2CC3)cc1 [Example 110, 8-(isonicotinoylamino)-1-[4-(methylsulfonyl)phenyl]-4,5-dihydro-1H-benzo[g]indazole-3-carboxamide]
pIC50 [5]: ≥ 6.00

NC(=O)c1nn(-c2ccc3c(c2)OCO3)c2c1CCc1ccc(NC(=O)c3ccncc3)cc1-2 [Example 196, 1-(1,3-benzodioxol-5-yl)-8-(isonicotinoylamino)-4,5-dihydro-1H-benzo[g]indazole-3-carboxamide]
pIC50 [1]: ≥ 6.00

CS(=O)(=O)/C=C/c1ccc(-n2nc(C(N)=O)c3c2-c2cc(NC(=O)c4ccccc4Cl)ccc2CC3)cc1 [Example 297, 8-[(2-chlorobenzoyl)amino]-1-{4-[(E)-2-(methylsulfonyl)ethenyl]phenyl}-4,5-dihydro-1H-benzo[g]indazole-3-carboxamide]
pIC50 [4]: ≥ 6.00

CS(=O)(=O)c1ccc(-n2nc(C(N)=O)c3c2-c2cc(NC(=O)c4cc(Cl)cnc4Cl)ccc2CC3)cc1 [Example 123, 8-{[(2,5-dichloropyridin-3-yl)carbonyl]amino}-1-[4-(methylsulfonyl)phenyl]-4,5-dihydro-1H-benzo[g]indazole-3-carboxamide]
pIC50 [5]: ≥ 6.00

CNS(=O)(=O)c1ccc(-n2nc(C(N)=O)c3c2-c2cc(NC(=O)c4ccccc4Cl)ccc2CC3)cc1 [Example 422, 8-[(2-chlorobenzoyl)amino]-1-{4-[(methylamino)sulfonyl]phenyl}-4,5-dihydro-1H-benzo[g]indazole-3-carboxamide]
pIC50 (read-out: IKK-2 resin IC50): ≥ 6.00

Cc1ccccc1C(=O)Nc1ccc2c(c1)-c1c(c(C(N)=O)nn1-c1ccc(S(C)(=O)=O)cc1)CC2 [Example 94, 8-[(2-methylbenzoyl)amino]-1-[4-(methylsulfonyl)phenyl]-4,5-dihydro-1H-benzo[g]indazole-3-carboxamide]
pIC50 [5]: ≥ 6.00

NC(=O)c1nn(-c2cccc(N)c2)c2c1CCc1ccc(NC(=O)c3ccccc3Cl)cc1-2 [Example 375, 1-(3-aminophenyl)-8-[(2-chlorobenzoyl)amino]-4,5-dihydro-1H-benzo[g]indazole-3-carboxamide]
pIC50 (Table 15, read-out: IKK2 Resin IC50): ≥ 6.00

NC(=O)c1nn(-c2cc(F)cc(F)c2)c2c1CCc1ccc(NC(=O)c3cccnc3Cl)cc1-2 [Example 347, 8-{[(2-chloropyridin-3-yl)carbonyl]amino}-1-(3,5-difluorophenyl)-4,5-dihydro-1H-benzo[g]indazole-3-carboxamide]
pIC50 (Table 14, read-out: IKK2 Resin IC50): ≥ 6.00

NC(=O)c1nn(-c2ccc(F)cc2)c2c1CCc1ccc(NC(=O)c3cccc(Cl)c3Cl)cc1-2 [Example 238, 8-[(2,3-dichlorobenzoyl)amino]-1-(4-fluorophenyl)-4,5-dihydro-1Hbenzo[g]indazole-3-carboxamide]
pIC50 [3]: ≥ 6.00

CS(=O)(=O)c1ccc(-n2nc(C(N)=O)c3c2-c2cc(NC(=O)c4cccc(N)c4Cl)ccc2CC3)cc1 [Example 116, 8-[(3-amino-2-chlorobenzoyl)amino]-1-[4-(methylsulfonyl)phenyl]-4,5-dihydro-1H-benzo[g]indazole-3-carboxamide]
pIC50 [5]: ≥ 6.00

CN(C)S(=O)(=O)c1ccc(-n2nc(C(N)=O)c3c2-c2cc(NC(=O)c4ccccc4Cl)ccc2CC3)cc1 [Example 427, 8-[(2-chlorobenzoyl)amino]-1-{4-[(dimethylamino)sulfonyl]phenyl}-4,5-dihydro-1H-benzo[g]indazole-3-carboxamide]
pIC50 (Table 21, read-out: IKK2 Resin IC50): ≥ 6.00

CCS(=O)(=O)c1ccc(-n2nc(C(N)=O)c3c2-c2cc(NC(=O)c4cc(NC(C)=O)ccc4Cl)ccc2CC3)cc1 [Example 392, 8-{[5-(acetylamino)-2-chlorobenzoyl]amino}-1-[4-(ethylsulfonyl)phenyl]-4,5-dihydro-1H-benzo[g]indazole-3-carboxamide]
pIC50 [2]: ≥ 6.00

NC(=O)c1nn(-c2ccc3c(c2)OCO3)c2c1CCc1ccc(NC(=O)c3cccc(Cl)c3Cl)cc1-2 [Example 194, 1-(1,3-benzodioxol-5-yl)-8-[(2,3-dichlorobenzoyl)amino]-4,5-dihydro-1H-benzo[g]indazole-3-carboxamide]
pIC50 [1]: ≥ 6.00

COc1cc(Cl)c(C(=O)Nc2ccc3c(c2)-c2c(c(C(N)=O)nn2-c2ccc4c(c2)OCO4)CC3)cc1OC [Example 174, 1-(1,3-benzodioxol-5-yl)-8-[(2-chloro-4,5-dimethoxybenzoyl)amino]-4,5-dihydro-1H-benzo[g]indazole-3-carboxamide]
pIC50 [1]: ≥ 6.00

NC(=O)c1nn(-c2ccc3c(c2)OCO3)c2c1CCc1ccc(NC(=O)c3c(N)cccc3Cl)cc1-2 [Example 169, 8-[(2-amino-6-chlorobenzoyl)amino]-1-(1,3-benzodioxol-5-yl)-4,5-dihydro-1H-benzo[g]indazole-3-carboxamide]
pIC50 [1]: ≥ 6.00
